Data: ChEMBL document CHEMBL1201862, “PubChem BioAssay data set” (2004)
Calls of active or inactive are those of the source.

Assays:
Type in all cases: functional
[1] = target: Ribosomal protein S6 kinase alpha-3 (Homo sapiens, UniProt P51812);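 also: measured within a kinome-wide profiling panel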
[2] = target: Leucine-rich repeat serine/threonine-protein kinase 2 (Homo sapiens, UniProt Q5S007);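 also: value from a broad kinome-wide panel profiling study in which LRRK2 was one of the kinases tested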
[3] = target: Dual specificity mitogen-activated protein kinase kinase 1 (Homo sapiens, UniProt Q02750); assay: Navigating the Kinome. Panel member name: MAP2K1
[4] = target: Cyclin-dependent kinase 7 (Homo sapiens, UniProt P50613);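 also: value comes from a kinome-wide kinase profiling panel in which CDK7 is one member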
[5] = target: Rho-associated protein kinase 1 (Homo sapiens, UniProt Q13464);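 also: measured within a broad kinome-wide panel profiling many kinases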
[6] = target: T1, Inhibitor of nuclear factor kappa-B kinase subunit epsilon (Homo sapiens, UniProt Q14164); assay: Navigating the Kinome. Panel member name: IKBKE
T1 sequence (Q14164 whole entry): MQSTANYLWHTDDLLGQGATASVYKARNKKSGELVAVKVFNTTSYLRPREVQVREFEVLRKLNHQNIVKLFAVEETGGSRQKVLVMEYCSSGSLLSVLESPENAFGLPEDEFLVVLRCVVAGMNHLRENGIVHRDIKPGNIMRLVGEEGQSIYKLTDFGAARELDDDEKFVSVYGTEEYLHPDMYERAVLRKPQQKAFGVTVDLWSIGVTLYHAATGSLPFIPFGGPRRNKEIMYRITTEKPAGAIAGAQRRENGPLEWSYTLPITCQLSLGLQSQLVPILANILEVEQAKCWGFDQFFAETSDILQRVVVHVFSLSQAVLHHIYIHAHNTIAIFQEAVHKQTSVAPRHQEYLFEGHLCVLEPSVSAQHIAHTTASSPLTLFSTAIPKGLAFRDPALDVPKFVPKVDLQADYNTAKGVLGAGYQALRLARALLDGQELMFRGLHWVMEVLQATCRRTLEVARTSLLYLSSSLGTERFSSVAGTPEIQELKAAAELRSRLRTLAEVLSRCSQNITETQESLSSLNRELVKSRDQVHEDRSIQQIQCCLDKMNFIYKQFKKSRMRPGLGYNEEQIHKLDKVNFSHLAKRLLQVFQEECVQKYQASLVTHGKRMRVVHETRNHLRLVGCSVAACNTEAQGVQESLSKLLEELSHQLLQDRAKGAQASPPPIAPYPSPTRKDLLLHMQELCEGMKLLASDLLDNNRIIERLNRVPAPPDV

[7] = target: 5'-AMP-activated protein kinase catalytic subunit alpha-1 (Homo sapiens, UniProt Q13131)
[8] = target: Hepatocyte growth factor receptor (Homo sapiens, UniProt P08581);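 also: kinase panel profiling across the kinome, with MET as the panel member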
[9] = target: T2, Serine/threonine-protein kinase TBK1 (Homo sapiens, UniProt Q9UHD2); assay: Navigating the Kinome. Panel member name: TBK1
T2 sequence (Q9UHD2 whole entry): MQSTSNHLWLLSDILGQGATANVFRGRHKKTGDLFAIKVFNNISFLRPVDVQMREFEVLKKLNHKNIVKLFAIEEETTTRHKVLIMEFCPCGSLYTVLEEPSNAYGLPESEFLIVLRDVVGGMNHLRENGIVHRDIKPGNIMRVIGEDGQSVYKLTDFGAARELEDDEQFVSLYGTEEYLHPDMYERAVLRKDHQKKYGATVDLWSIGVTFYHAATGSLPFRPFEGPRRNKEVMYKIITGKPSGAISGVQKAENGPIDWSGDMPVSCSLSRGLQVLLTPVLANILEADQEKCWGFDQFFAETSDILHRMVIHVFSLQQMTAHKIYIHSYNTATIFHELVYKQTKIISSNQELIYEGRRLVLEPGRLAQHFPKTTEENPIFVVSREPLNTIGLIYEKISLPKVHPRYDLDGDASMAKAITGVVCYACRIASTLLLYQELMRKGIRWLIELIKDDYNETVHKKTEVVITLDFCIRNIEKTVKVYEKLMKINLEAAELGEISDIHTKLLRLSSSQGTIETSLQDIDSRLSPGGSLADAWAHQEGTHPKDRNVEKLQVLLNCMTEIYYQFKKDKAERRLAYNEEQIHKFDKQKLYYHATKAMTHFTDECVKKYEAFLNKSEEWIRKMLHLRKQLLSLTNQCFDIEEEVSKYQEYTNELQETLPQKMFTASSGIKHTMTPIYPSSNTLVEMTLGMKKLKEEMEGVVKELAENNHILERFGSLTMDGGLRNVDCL

[10] = target: T3, Tyrosine-protein kinase JAK3 (Homo sapiens, UniProt P52333)
T3 sequence (P52333 whole entry): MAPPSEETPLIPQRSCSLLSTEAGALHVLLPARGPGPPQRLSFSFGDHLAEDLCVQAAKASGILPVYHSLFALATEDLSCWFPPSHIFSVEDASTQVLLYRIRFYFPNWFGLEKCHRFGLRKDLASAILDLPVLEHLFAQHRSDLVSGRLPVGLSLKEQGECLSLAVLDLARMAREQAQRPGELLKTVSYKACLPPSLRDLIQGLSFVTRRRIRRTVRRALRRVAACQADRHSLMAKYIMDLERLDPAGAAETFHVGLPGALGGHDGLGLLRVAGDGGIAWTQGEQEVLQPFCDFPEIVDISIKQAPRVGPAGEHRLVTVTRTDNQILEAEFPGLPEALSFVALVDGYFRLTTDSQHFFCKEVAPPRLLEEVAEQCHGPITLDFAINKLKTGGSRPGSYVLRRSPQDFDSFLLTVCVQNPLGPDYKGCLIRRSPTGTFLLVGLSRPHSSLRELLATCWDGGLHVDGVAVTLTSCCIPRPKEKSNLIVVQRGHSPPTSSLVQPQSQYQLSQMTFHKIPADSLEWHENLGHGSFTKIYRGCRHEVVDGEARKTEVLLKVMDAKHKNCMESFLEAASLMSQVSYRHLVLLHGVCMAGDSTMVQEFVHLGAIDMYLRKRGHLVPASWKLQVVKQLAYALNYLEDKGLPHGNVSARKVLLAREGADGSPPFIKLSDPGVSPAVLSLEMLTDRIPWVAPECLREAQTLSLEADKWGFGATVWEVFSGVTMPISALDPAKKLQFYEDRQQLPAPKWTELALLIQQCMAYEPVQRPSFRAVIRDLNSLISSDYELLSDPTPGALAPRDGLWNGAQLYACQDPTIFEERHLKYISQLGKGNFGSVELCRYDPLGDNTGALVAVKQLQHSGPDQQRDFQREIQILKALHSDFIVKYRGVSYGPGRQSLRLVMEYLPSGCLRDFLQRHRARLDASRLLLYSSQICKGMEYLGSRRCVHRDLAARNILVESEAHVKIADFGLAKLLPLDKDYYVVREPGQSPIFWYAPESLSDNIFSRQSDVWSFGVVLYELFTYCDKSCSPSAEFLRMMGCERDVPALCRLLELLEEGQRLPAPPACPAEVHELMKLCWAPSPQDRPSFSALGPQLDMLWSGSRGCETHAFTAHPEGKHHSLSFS

[11] = target: Mitogen-activated protein kinase 8 (Homo sapiens, UniProt P45983);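 also: value comes from one member of a kinome-wide kinase profiling panel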
Mitogen-activated protein kinase 8, sequence (P45983 whole entry): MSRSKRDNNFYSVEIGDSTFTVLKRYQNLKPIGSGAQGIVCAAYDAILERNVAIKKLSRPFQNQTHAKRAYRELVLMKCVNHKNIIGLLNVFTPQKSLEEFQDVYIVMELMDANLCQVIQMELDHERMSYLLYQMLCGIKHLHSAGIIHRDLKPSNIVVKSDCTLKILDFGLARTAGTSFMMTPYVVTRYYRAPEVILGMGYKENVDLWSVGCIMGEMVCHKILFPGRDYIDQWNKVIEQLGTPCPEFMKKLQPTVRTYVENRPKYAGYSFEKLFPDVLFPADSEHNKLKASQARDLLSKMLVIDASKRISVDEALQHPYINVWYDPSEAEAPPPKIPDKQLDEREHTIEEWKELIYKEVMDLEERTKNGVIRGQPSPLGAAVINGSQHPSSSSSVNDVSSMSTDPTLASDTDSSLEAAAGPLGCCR

Ribosomal protein S6 kinase alpha-3, sequence (P51812 whole entry): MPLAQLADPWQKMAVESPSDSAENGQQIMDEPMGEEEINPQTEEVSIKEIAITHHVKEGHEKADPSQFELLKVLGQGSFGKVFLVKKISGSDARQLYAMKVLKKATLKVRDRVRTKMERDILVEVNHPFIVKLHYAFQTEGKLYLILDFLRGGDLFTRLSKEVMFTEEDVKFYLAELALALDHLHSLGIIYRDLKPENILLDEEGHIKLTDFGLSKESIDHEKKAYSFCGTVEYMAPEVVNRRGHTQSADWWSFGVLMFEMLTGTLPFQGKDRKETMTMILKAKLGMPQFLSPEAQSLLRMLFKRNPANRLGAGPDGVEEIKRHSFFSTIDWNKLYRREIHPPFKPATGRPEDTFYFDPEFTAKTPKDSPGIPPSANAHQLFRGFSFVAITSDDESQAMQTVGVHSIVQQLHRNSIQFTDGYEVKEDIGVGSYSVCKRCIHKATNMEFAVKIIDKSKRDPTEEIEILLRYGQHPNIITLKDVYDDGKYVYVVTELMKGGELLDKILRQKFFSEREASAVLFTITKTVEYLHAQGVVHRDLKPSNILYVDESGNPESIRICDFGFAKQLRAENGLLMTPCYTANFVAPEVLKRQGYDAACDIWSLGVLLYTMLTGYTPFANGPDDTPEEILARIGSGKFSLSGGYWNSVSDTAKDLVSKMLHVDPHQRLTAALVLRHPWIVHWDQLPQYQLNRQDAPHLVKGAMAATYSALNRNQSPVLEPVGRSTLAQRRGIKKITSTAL
Cyclin-dependent kinase 7, sequence (P50613 whole entry): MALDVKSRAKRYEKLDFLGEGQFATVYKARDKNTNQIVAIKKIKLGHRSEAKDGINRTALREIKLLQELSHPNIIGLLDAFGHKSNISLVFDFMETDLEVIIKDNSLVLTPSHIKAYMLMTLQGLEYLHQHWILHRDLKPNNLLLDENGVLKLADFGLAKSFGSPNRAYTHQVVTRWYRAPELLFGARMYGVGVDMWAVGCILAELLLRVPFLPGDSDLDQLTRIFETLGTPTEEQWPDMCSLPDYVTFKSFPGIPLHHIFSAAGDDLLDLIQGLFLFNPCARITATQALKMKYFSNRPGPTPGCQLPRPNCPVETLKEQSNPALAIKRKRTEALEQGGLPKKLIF
5'-AMP-activated protein kinase catalytic subunit alpha-1, sequence (Q13131 whole entry): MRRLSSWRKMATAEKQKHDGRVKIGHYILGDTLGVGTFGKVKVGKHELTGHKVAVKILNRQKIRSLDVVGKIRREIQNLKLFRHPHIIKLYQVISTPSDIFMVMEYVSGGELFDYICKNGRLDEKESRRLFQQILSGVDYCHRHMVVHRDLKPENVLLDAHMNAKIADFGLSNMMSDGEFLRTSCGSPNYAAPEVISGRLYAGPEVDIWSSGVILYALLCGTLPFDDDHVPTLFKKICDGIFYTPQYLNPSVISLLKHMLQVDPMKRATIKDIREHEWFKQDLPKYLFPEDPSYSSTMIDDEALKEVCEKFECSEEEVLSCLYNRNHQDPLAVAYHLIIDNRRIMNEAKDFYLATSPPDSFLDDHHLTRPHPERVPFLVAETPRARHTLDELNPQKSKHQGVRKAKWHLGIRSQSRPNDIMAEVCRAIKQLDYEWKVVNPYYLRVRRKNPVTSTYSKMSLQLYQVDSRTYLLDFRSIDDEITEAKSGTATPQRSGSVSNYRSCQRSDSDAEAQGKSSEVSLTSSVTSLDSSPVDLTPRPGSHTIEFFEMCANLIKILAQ
Dual specificity mitogen-activated protein kinase kinase 1, sequence (Q02750 whole entry): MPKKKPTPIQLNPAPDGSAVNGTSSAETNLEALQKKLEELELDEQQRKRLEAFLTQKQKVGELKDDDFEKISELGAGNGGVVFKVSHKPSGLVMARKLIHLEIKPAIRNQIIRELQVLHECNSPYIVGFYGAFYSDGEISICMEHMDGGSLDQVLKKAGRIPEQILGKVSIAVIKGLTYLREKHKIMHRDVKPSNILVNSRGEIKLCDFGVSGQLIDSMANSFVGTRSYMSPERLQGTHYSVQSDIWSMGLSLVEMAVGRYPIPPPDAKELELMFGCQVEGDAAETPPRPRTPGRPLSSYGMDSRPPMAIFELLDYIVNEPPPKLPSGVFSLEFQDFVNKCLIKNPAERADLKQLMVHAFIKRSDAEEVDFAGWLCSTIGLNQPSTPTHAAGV
Rho-associated protein kinase 1, sequence (Q13464 whole entry): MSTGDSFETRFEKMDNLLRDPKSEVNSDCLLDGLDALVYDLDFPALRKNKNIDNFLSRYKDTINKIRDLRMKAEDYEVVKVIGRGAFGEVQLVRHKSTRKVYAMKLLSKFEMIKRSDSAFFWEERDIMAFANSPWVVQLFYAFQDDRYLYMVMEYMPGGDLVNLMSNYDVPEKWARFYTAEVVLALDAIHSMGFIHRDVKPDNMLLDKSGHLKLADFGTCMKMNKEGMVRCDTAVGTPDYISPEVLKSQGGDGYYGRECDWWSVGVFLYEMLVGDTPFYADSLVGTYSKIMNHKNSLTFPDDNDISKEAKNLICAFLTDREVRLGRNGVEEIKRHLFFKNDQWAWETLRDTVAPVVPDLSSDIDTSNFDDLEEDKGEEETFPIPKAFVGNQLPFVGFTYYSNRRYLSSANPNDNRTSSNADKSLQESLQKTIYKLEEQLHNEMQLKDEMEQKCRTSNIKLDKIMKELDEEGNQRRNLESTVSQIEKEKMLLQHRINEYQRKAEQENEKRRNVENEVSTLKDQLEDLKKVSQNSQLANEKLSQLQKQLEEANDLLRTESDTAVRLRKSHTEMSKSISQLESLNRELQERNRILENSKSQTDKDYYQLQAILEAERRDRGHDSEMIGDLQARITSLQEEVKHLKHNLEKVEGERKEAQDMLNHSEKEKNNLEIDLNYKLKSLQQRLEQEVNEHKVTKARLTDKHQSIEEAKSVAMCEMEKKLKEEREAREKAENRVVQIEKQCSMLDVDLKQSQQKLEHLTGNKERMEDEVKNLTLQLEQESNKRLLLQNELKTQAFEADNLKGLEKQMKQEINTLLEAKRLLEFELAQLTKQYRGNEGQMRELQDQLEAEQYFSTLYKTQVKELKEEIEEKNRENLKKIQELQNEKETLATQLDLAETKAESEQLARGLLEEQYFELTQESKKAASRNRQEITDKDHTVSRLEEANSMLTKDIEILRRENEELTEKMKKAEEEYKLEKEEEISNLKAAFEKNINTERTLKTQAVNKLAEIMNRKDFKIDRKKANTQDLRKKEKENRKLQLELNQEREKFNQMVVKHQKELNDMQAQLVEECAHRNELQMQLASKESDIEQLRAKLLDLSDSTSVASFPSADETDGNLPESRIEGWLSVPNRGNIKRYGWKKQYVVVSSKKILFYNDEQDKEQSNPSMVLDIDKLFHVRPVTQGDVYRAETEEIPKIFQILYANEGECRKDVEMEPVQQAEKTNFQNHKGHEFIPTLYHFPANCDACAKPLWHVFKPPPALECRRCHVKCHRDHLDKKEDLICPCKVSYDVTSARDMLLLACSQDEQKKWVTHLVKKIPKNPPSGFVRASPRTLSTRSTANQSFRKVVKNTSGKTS

| Ki [1] | Ki [2] | Ki [3] | Ki [4] | Ki [5] | Ki [6] | Ki [7] | Ki [8] | Ki [9] | Ki [10] | Ki [11] | Compound |
| --- | --- | --- | --- | --- | --- | --- | --- | --- | --- | --- | --- |
| > 3.98 µM (inactive) | > 2.51 µM (inactive) | > 3.16 µM (inactive) | > 3.98 µM (inactive) | 0.0316 µM (active) | > 3.16 µM (inactive) | > 3.16 µM (inactive) | > 2.51 µM (inactive) | > 3.16 µM (inactive) | > 5.01 µM (inactive) | > 5.01 µM (inactive) | COc1cccc(C(C)NC(=O)c2sc(-c3ccncc3)nc2C)c1 (stereo not drawn) |
| > 3.98 µM (inactive) | > 2.51 µM (inactive) | > 3.16 µM (inactive) | > 3.98 µM (inactive) | > 0.0316 µM (inactive) | > 3.16 µM (inactive) | > 3.16 µM (inactive) | > 2.51 µM (inactive) | > 3.16 µM (inactive) | > 5.01 µM (inactive) | > 5.01 µM (inactive) | CCCCC(=O)Nc1cc(-c2c[nH]c3ncccc23)cc(Cl)n1 |
| > 3.98 µM (inactive) | > 2.51 µM (inactive) | > 3.16 µM (inactive) | > 3.98 µM (inactive) | > 3.98 µM (inactive) | > 3.16 µM (inactive) | > 3.16 µM (inactive) | > 2.51 µM (inactive) | > 3.16 µM (inactive) | > 5.01 µM (inactive) | 0.501 µM (active) | Oc1ccc(-c2nc(-c3ccncc3)c(-c3ccc(F)cc3)[nH]2)cc1 [SB-202190] |
